For this experiment, the target named is T1, IP receptor (Homo sapiens, UniProt P43119).
T1 construct: expressed in transfected cells; host or cells: CHO cells stably expressing the IP receptor (CHO-IP)
The experiment in a line: cAMP accumulation in CHO cells stably expressing the IP receptor (CHO-IP), PerkinElmer AlphaScreen assay. The settings on record: 1 hour at room temperature, 4-parameter logistic fit. The format is cell-based. The procedure: Activity of compounds at the IP receptor (IP receptor) is assessed by measuring cAMP accumulation in CHO cells stably expressing the IP receptor (CHO-IP) using the PerkinElmer AlphaScreen assay. This technology measures the endogenous production of cAMP, in a non-radioactive luminescence proximity homogenous assay. A biological reaction occurs between streptavidin coated donor beads, biotinylated cAMP and anti-cAMP acceptor beads, bringing the donor and acceptor beads close enough together so that upon excitation a fluorescence signal is produced. On production of endogenous cAMP, competition between the biotinylated cAMP and cellular-derived cAMP causes a reduction in the fluorescent signal. The reduction in signal is proportional to the amount of cAMP being produced, thus it is possible to quantify the amount of cAMP being produced on stimulation with agonist.
Test and reference compounds are prepared at 100×[final] in 100% DMSO, and diluted 1:3 using a Biomek Fx (Beckman Coulter). This is followed by an intermediate dilution to give 5×[final] in assay buffer (HBSS containing 5 mM HEPES, 0.1% (w/v) BSA). 5 μL of 5×[final] test compounds, reference compounds and buffer/DMSO control are then transferred to a 384-well white OptiPlate, containing 20 μL CHO-IP cell suspension (15,000 cells/well, prepared from frozen), and plate is incubated at room temperature for 1 hour. A cAMP standard curve is constructed for each experiment (concentration range of 10000 nM to 0.001 nM, in assay buffer) and 25 μL of each concentration added to the last two columns of the assay plate. The incubation is terminated by the addition of lysis buffer (dH2O; 0.3% (v v^−1) Tween-20) containing 20 units mL^−1 streptavidin coated donor beads and biotinylated cAMP (pre-incubated for 30 minutes) and 20 units mL^−1 anti-cAMP acceptor beads, which are added to the lysis buffer just before addition to the assay plate. The assay plate is then incubated at room temperature in the dark, for 60 minutes with gentle shaking, and read on the Envision plate reader (Perkin Elmer).
The raw data of the reference compounds, test compounds and controls are converted into cAMP concentrations, using the cAMP standard curve, in GraphPadPrism (Graph Pad Software Inc). EC50 as well as maximal values of the agonist curves are determined using a 4-parameter logistic equation. The % maximum response values of all test compounds are determined using the top of the treprostinil concentration-response curve.

Usually EC50 stands for the concentration giving half of the maximal effect. A low value points to higher potency in that assay.

T1 sequence (P43119 whole entry): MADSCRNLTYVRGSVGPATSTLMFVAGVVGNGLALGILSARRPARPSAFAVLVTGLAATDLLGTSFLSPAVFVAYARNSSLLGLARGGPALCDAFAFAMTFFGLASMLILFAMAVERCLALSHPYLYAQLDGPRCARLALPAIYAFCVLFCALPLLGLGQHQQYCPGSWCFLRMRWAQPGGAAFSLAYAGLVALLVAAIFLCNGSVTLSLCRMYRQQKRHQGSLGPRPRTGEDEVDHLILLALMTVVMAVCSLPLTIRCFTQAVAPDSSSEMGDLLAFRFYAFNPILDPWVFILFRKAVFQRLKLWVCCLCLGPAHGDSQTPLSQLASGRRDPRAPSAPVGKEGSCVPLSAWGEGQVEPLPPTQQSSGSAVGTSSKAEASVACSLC

`CC1c2nc(-c3ccccc3)c(-c3ccccc3)nc2CCN1CCCCCCC(=O)O` (racemic) [Example 1, rac-7-(5-methyl-2,3-diphenyl-7,8-dihydropyrido[3,4-b]pyrazin-6(5H)-yl)heptanoic acid]: the response was half-maximal at 275 nM (EC50).

With `Cc1ccc(-c2nc3c(nc2-c2ccc(C)cc2)C(C)N(CCCCC(=O)O)CC3)cc1` (stereo not drawn) [Example 1.1, 5-(5-Methyl-2,3-di-p-tolyl-7,8-dihydro-5H-pyrido[3,4-b]pyrazin-6-yl)-pentanoic acid], the EC50 is 1.5 nM.

Regarding `Cc1ccc(-c2nc3c(nc2-c2ccc(C)cc2)C(CCCCCCC(=O)O)N(C)CC3)cc1` (stereo not drawn) [Example 3, 7-(6-Methyl-2,3-dip-tolyl-5,6,7,8-tetrahydropyrido[3,4-b]pyrazin-5-yl)heptanoic acid], the EC50 was 2.3 nM.

Consider `CC1c2nc(-c3ccccc3)c(-c3ccccc3)nc2CCN1CCCCCCC(=O)O` (single isomer, unassigned) [Example 1(i), (R)-7-(5-methyl-2,3-diphenyl-7,8-dihydropyrido[3,4-b]pyrazin-6(5H)-yl)heptanoic acid or (S)-7-(5-methyl-2,3-diphenyl-7,8-dihydropyrido[3,4-b]pyrazin-6(5H)-yl)heptanoic acid], for which the concentration for a half-maximal effect (EC50) amounted to 190 nM.

Regarding `Cc1ccc(-c2nc3c(nc2-c2ccc(C)cc2)C(C)N(CCCCCC(=O)O)CC3)cc1` (stereo not drawn) [Example 1.2, 6-(5-Methyl-2,3-di-p-tolyl-7,8-dihydro-5H-pyrido[3,4-b]pyrazin-6-yl)-hexanoic acid], the midpoint of the response, the EC50, lay at 2 nM.

`CC1c2nc(-c3ccccc3)c(-c3ccccc3)nc2CCN1CCCCCCC(=O)O` (single isomer, unassigned) [Example 1(ii), (R)-7-(5-methyl-2,3-diphenyl-7,8-dihydropyrido[3,4-b]pyrazin-6(5H)-yl)heptanoic acid or (S)-7-(5-methyl-2,3-diphenyl-7,8-dihydropyrido[3,4-b]pyrazin-6(5H)-yl)heptanoic acid] had an EC50 of 710 nM.

With `Cc1ccc(-c2nc3c(nc2-c2ccc(C)cc2)C(CCCCCCC(=O)O)NCC3)cc1` (racemic) [Example 2.1, rac-7-(2,3-Dip-tolyl-5,6,7,8-tetrahydropyrido[3,4-b]pyrazin-5-yl)heptanoic acid], it took 5.4 nM to reach a half-maximal effect (EC50).

`Cc1ccc(-c2nc3c(nc2-c2ccc(C)cc2)C(CCCCCC(=O)O)N(C)CC3)cc1` (racemic) [Example 3.1, rac-6-(6-Methyl-2,3-dip-tolyl-5,6,7,8-tetrahydropyrido[3,4-b]pyrazin-5-yl)hexanoic acid] returned an EC50 of 25.9 nM.

Molecule `Cc1ccc(-c2nc3c(nc2-c2ccc(C)cc2)C(CCCCCC(=O)O)NCC3)cc1` (racemic) [Example 2, rac-6-(2,3-Dip-tolyl-5,6,7,8-tetrahydropyrido[3,4-b]pyrazin-5-yl)hexanoic acid] had an EC50 of 5 nM.

These data come from patent US20140378463A1, “IP receptor agonist heterocyclic compounds” (NOVARTIS AG, priority 2012, published 2014).
